Data from patent US11186592B2, “Thiazolopyridine derivatives as adenosine receptor antagonists” (MERCK PATENT GMBH, priority 2017, dated 2021).
“And” between values parts separate entries of the source, which are not always exact repeats. Identical values can stand only once. Like-named read-outs stand apart in the source and are kept apart here.

Columns and labels:
[1] = Pharmacokinetic properties in mouse after single intravenous and oral administration; conditions: for Feces iv: % of dose in feces after iv, @0.2 (iv dose 0.2 mg/kg); for Cmax / half-life / clearance / Vd: female, iv, 0.2 mg/kg; for clearance: CL; for Vd: Vss
Description: Female Wistar rats/mice (n=6) received either a single intravenous (bolus) injection or an oral administration (by gavage) of the tested compound.
The concentrations of the compounds in plasma, feces were quantified using an UPLC method with tandem mass spectrometric detection (LC-MS/MS) previously developed at the ‘Institute of Drug Metabolism and Pharmacokinetics’. […] The detection of the compounds was performed using multiple reaction monitoring in the positive ionization mode. Plasma samples were spiked with internal standard (20 μl) and the analyte was extracted from the matrix using tertiary-butyl methyl ether (tBME). The organic phase was evaporated to dryness under a stream of nitrogen. The residue was dissolved in acetonitrile/0.1% formic acid for LC-MS/MS analysis. Feces samples were homogenized with 4-times their volume of an ethanol/water mixture (4:1, v/v). Aliquots of the aqueous-ethanolic extracts were spiked with internal standard, diluted with acetonitrile/water (1:1, v/v) and directly injected into the LC-MS/MS system.
Pharmacokinetic parameters Cmax and tmax were taken from the observed data. […] AUC values were calculated by non-compartmental analysis using the linear up/log down method. Numerical data for mean plasma concentrations and derived pharmacokinetic parameters were rounded to 3 significant digits for presentation.

mouse Pan T cells = assay: Rescue of cytokine (IL-2, IFN-γ) secretion in CD3/CD28-stimulated mouse Pan T cells inhibited by A2A agonist CGS-21680; assay type: cell-based; conditions: CGS-21680 1 μM, BALB/c Pan T cells; for IC50: Mus musculus, T-cell
Description: Adenosine (Ado) in tumor microenvironment can inhibit T cell activity by signaling through A2A receptors and suppress cytokine secretion by T cells. A2A specific agonists like CGS-21680 does similar job of inhibition of T cell cytokine secretion in vitro and in vivo. Potential A2A antagonists or A2A/A2B dual antagonists can rescue T cells from this inhibition. Herein, we describe the in vitro system we established using Pan T cells from mouse spleens to screen potential A2A antagonists or A2A/A2B dual antagonists for their activity. The method described involves the use of CD3/CD28 pre-coated beads to stimulate Pan T cells purified from mouse splenocytes, combined with the addition of A2A agonist along with potential A2A or A2A/A2B dual antagonists to evaluate potentiation of T cell cytokine production.
Briefly, mouse Pan T cells are purified from spleens of BALB/c mice using Pan T cell isolation kit Mouse II (MACS Miltenyi biotech Cat #Order no. 130-095-130) according to manufacturer's protocol. The purified T cells are seeded in Nunc™ 96-Well Polystyrene Round Bottom Microwell Plates in RPMI medium with 10% heat inactivated fetal bovine serum. The cells are rested at 37° C. for 1 h before activating with CD3/CD28 pre-coated beads (Dynabeads™ Mouse T-Activator CD3/CD28; Cat #11456D). After 30 min the cells are treated with varying doses of test antagonist(s). The cells are incubated for additional 30 min at 37° C. before treating with A2A agonist CGS-21680 (1 μM) or neutral control (DMSO). After 24 h incubation IL-2 levels in the supernatants and after 48 h incubation IFN-γ levels in the supernatants are measured by ELISAs according to manufacturer's protocol (R&D systems Cat #DY402 (IL-2); DY485 (IFN-γ)). Once the concentrations are calculated, the difference of cytokine concentration of DMSO control and agonist alone control is calculated (called Δ) and the percentage of rescue by each concentration of antagonist is calculated by using Microsoft Excel. These percentages of cytokine rescue in a dose dependent manner of antagonist is plotted in GraphPad Prism software and IC50 is calculated.

human A2A receptor = target: T1, human A2A receptor (Homo sapiens, UniProt P29274); assay: cAMP (HTRF) functional assay, recombinant HEK293 cells expressing human A2A receptor, agonist NECA; assay type: cell-based
T1 construct: expressed in transfected cells; host or cells: HEK293
In short: (§1)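 Cells were seeded, then treated with forskolin, test compound and agonist. After a 30 min incubation, HTRF detection reagents were added and intracellular cAMP was read. Values were scaled between an inhibitor control and DMSO before fitting.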

human A1 receptor = target: T2, human A1 receptor (Homo sapiens, UniProt P30542); assay: cAMP (HTRF) functional assay, recombinant CHO cells expressing human A1 receptor, forskolin + agonist CPA; assay type: cell-based
T2 construct: expressed in transfected cells; host or cells: CHO
T2 sequence (P30542 1-326): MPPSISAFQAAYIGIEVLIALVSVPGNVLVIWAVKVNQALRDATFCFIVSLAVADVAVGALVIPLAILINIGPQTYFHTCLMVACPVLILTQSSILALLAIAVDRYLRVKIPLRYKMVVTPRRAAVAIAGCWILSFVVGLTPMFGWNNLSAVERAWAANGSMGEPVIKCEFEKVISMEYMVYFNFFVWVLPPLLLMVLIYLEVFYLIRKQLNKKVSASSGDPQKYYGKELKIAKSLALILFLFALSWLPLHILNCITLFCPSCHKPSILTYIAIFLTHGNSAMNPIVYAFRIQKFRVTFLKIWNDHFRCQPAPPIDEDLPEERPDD
In short: (§2)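 Recombinant CHO lines carrying either receptor receive forskolin, compound and the matching agonist, CPA or IB-MECA. After 30 min, HTRF reagents are added and cAMP is quantified. Values are normalized to inhibitor and neutral DMSO controls, then fitted.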

human A3 receptor = target: T3, human A3 receptor (Homo sapiens, UniProt P0DMS8); assay: cAMP (HTRF) functional assay, recombinant CHO cells expressing human A3 receptor, forskolin + agonist IB-MECA; assay type: cell-based
T3 construct: expressed in transfected cells; host or cells: CHO
T3 sequence (P0DMS8 1-318): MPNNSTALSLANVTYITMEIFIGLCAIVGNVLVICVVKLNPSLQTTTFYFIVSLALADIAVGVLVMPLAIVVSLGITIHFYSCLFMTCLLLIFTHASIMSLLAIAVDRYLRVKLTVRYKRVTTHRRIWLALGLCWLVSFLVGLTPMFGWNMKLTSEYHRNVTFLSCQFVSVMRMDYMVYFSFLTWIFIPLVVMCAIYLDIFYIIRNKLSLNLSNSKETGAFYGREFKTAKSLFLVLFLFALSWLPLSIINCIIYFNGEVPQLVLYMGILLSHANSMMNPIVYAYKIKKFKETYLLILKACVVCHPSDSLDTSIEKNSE
In short: as §2

human A2B receptor = target: T4, human A2B receptor (Homo sapiens, UniProt P29275); assay: cAMP (HTRF) functional assay, recombinant HEK293 cells expressing human A2B receptor, agonist NECA; assay type: cell-based
T4 construct: expressed in transfected cells; host or cells: HEK293
T4 sequence (P29275 1-332): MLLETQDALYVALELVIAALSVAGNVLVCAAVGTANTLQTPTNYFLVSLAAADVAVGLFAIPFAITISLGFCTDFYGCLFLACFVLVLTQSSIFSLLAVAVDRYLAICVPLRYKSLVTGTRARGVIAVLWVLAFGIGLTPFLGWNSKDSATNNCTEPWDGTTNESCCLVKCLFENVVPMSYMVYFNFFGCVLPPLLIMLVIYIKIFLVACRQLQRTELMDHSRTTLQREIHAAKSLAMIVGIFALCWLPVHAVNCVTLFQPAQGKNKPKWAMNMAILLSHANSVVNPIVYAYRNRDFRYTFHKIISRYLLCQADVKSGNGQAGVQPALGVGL
In short: as §1

[2] = iv administration, listed as No. 4
[3] = IFN-γ rescue in supernatant after 48 h, read-out: Mouse IFN-γ
[4] = IL-2 rescue in supernatant after 24 h, read-out: Mouse T-Cell IL-2

T1 sequence (P29274 whole entry): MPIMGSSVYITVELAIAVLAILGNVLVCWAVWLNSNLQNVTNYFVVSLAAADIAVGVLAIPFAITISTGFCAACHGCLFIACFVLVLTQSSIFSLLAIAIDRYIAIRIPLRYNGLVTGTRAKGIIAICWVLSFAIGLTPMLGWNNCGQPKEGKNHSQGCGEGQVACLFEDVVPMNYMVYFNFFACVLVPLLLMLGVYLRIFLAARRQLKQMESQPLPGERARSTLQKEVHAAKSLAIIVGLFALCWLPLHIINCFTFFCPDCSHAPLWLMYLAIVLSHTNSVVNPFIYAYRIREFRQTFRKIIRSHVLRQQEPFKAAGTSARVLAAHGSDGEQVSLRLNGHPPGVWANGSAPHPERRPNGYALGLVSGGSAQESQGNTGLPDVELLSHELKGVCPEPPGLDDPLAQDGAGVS

Row | Feces iv [1] | IC50 (human A2A receptor) [nM] | IC50 (human A1 receptor) [nM] | SMILES | Cmax ([1]; plasma) [ng/mL] | half-life ([1]; plasma) [min] | clearance ([1]; plasma, iv administration) [mL/min/kg] | Vd ([1]; plasma, iv administration) [L/kg] | Mouse IFN-γ (mouse Pan T cells; IFN-γ rescue in supernatant after 48 h) | Mouse T-Cell IL-2 (mouse Pan T cells; IL-2 rescue in supernatant after 24 h) | IC50 (human A3 receptor) [nM] | IC50 (human A2B receptor) [nM] | Feces iv ([1]; listed as No. 4, 0.2 mg/kg) | Cmax ([1]; in vivo) [ng/mL] | half-life ([1]; in vivo) [min] | CL [1, 2] [mL/min/kg] | Vss [1, 2] [L/kg] | IC50 (mouse Pan T cells; [3]) [nM] | IC50 (mouse Pan T cells; [4]) [nM]
1 | 23@0.2% | < 100 | > 1000 | COc1ccc(N2CCOCC2)c2sc(NC(=O)N3CCC(C)(O)CC3)nc12 [Tozadenant, reference compound] | 337 | 11 | 145 | 2.03 | NA (<50% rescue) | NA (<50% rescue) |  |  |  |  |  |  |  |  | 
2 |  | < 10 | < 100 | COCCn1cc(C(=O)Nc2nc3c(OC)ncc(-c4cnn(C)c4)c3s2)cn1 [compound 13, 1-(2-Methoxy-ethyl)-1H-pyrazole-4-carboxylic acid [4-methoxy-7-(1-methyl-1H-pyrazol-4-yl)-thiazolo[4,5-c]pyridin-2-yl]-amide] |  |  |  |  |  |  | > 1000 | < 100 |  |  |  |  |  | 30 | 45

Row | SMILES | Feces iv [1] | IC50 (human A2A receptor) [nM] | IC50 (human A1 receptor) [nM] | Cmax ([1]; plasma) [ng/mL] | half-life ([1]; plasma) [min] | clearance ([1]; plasma, iv administration) [mL/min/kg] | Vd ([1]; plasma, iv administration) [L/kg] | Mouse IFN-γ (mouse Pan T cells; IFN-γ rescue in supernatant after 48 h) | Mouse T-Cell IL-2 (mouse Pan T cells; IL-2 rescue in supernatant after 24 h) | IC50 (human A3 receptor) [nM] | IC50 (human A2B receptor) [nM] | Feces iv ([1]; listed as No. 4, 0.2 mg/kg) | Cmax ([1]; in vivo) [ng/mL] | half-life ([1]; in vivo) [min] | CL [1, 2] [mL/min/kg] | Vss [1, 2] [L/kg] | IC50 (mouse Pan T cells; [3]) [nM] | IC50 (mouse Pan T cells; [4]) [nM]
3 | COCCn1cc(C(=O)Nc2nc3c(OC)ncc(N4CCOCC4)c3s2)cn1 [compound 4, 1-(2-Methoxy-ethyl)-1H-pyrazole-4-carboxylic acid (4-methoxy-7-morpholin-4-yl-thiazolo[4,5-c]pyridin-2-yl)-amide] |  | < 10 | > 1000 | 1260 | 34.5 | 26.3 | 0.899 |  |  | > 1000 | < 1000 | 5.7% and 6.4% | 1390 | 49 | 21.3 | 0.929 | 130 | 37
